Laboratory results reported in ChEMBL document CHEMBL1137252, “Substituted 5-benzyl-2-phenyl-5H-imidazo[4,5-c]pyridines: a new class of pestivirus inhibitors” (Bioorg Med Chem Lett, 2006).
Calls of active or inactive are those of the source. No rule for the calls is given here.

Legend:
[1] = Cytotoxicity against MDBK cells; format: cell-based, Bos taurus; conditions: cattle
Hepatitis C virus = experiment: Antiviral activity against HCV 1a; format: functional, organism-based; conditions: Hepacivirus hominis; subtype 1a
[2] = test system: Bovine viral diarrhea virus 1; experiment: Antiviral activity against BVDV NADL in MDBK cells; format: functional, organism-based; conditions: Bovine viral diarrhea virus isolates and strains
[3] = Selectivity index, CC50 for MDBK cells/EC50 for BVDV NADL; format: functional

| Structure (SMILES) | CC50 [1] [µM] | Activity (Hepatitis C virus) | EC50 [2] [µM] | Ratio CC50/EC50 [3] |
| --- | --- | --- | --- | --- |
| CC(C)(C)c1ccc(Cn2ccc3nc(-c4ccccc4)nc-3c2)cc1 | 22 | inactive | 0.49 | 45 |
| Ic1ccc(Cn2ccc3nc(-c4ccccc4)nc-3c2)cc1 | 22 | inactive | 0.12 | 183 |
| CCC(CC)Cn1ccc2nc(-c3ccccc3)nc-2c1 | > 100 | inactive | 1.9 | >52 |
| Fc1cccc(Cn2ccc3nc(-c4ccccc4)nc-3c2)c1 | > 100 | inactive | 0.15 | >667 |
| Fc1cccc(F)c1Cn1ccc2nc(-c3ccccc3)nc-2c1 | > 100 | inactive | 0.23 | >435 |
| Cc1ccc(Cn2ccc3nc(-c4ccccc4)nc-3c2)cc1 | > 100 | inactive | 0.13 | >769 |
| c1ccc(Cn2ccc3nc(-c4ccccc4)nc-3c2)cc1 | > 100 | inactive | 0.25 | >400 |
| Fc1cccc(F)c1Cn1c(-c2c(F)cccc2F)nc2cnccc21 | > 100 | inactive | 16.2 | >6 |
| Clc1ccc(Cn2ccc3nc(-c4ccccc4)nc-3c2)cc1 | > 100 | inactive | 0.08 | >1250 |
| c1ccc(CCCn2ccc3nc(-c4ccccc4)nc-3c2)cc1 | > 100 | inactive | 0.7 | >143 |
| CC(C)=CCn1ccc2nc(-c3ccccc3)nc-2c1 | > 100 | inactive | 3 | >33 |
| c1ccc(-c2nc3ccn(Cc4ccncc4)cc-3n2)cc1 | > 100 | inactive | 2 | >50 |
| c1ccc(-c2nc3cc[nH]cc-3n2)cc1 | > 100 | inactive | 10 | >10 |
| Fc1cccc(F)c1Cn1cccc2nc(-c3c(F)cccc3F)nc1-2 | > 100 | inactive | ≥ 32 | <=3 |
| Cc1ccn(Cc2c(F)cccc2F)c2nc(-c3c(F)cccc3F)nc1-2 | > 100 | inactive | ≥ 88 | <=1.1 |
| c1ccc(-c2nc3ccn(Cc4cccc5ccccc45)cc-3n2)cc1 | 61 | inactive | 0.06 | 1017 |
| Brc1ccccc1Cn1ccc2nc(-c3ccccc3)nc-2c1 | > 100 | inactive | 0.28 | >357 |
| Brc1ccc(Cn2ccc3nc(-c4ccccc4)nc-3c2)cc1 | – | inactive | 0.07 | 1186 |
| Fc1cccc(F)c1-c1nc2ccn(CCc3ccccc3)cc-2n1 | > 100 | inactive | 57 | >2 |
| O=C(O)c1ccc(Cn2ccc3nc(-c4ccccc4)nc-3c2)cc1 | > 100 | inactive | > 100 | – |
| N#Cc1ccccc1Cn1ccc2nc(-c3ccccc3)nc-2c1 | > 100 | inactive | 0.76 | >132 |
| c1ccc(OCCn2ccc3nc(-c4ccccc4)nc-3c2)cc1 | > 100 | inactive | 0.27 | >370 |
| Clc1ccc(Cn2ccc3nc(-c4ccccc4)nc-3c2)cc1Cl | 71 | inactive | 0.11 | 645 |

| Structure (SMILES) | CC50 [1] [µM] | Activity (Hepatitis C virus) | EC50 [2] [µM] | Ratio CC50/EC50 [3] |
| --- | --- | --- | --- | --- |
| Cc1ccccc1Cn1ccc2nc(-c3ccccc3)nc-2c1 | > 100 | inactive | 0.3 | >333 |
| Fc1cccc(F)c1Cn1c(-c2c(F)cccc2F)nc2ccncc21 | 99 | inactive | ≥ 48 | <=2 |
| COc1ccccc1Cn1ccc2nc(-c3ccccc3)nc-2c1 | > 100 | inactive | 0.27 | >370 |
| FC(F)(F)c1ccccc1Cn1ccc2nc(-c3ccccc3)nc-2c1 | > 100 | inactive | 1.5 | >67 |
| c1ccc(-c2nc3ccn(Cc4ccccn4)cc-3n2)cc1 | > 100 | inactive | 1.6 | >63 |
| c1ccc(-c2nc3ccn(CC4CCCCC4)cc-3n2)cc1 | > 100 | inactive | 0.85 | >118 |
| CCn1ccc2nc(-c3ccccc3)nc-2c1 | > 100 | inactive | 15 | >7 |
| CC(C)CCn1ccc2nc(-c3ccccc3)nc-2c1 | > 100 | inactive | 3.8 | >26 |
| c1ccc(-c2nc3ccn(Cc4ccc5ccccc5c4)cc-3n2)cc1 | 67 | inactive | 5 | 13 |
| c1ccc(-c2nc3ccn(Cc4cccnc4)cc-3n2)cc1 | > 100 | inactive | 1.7 | >59 |
| CC(C)N(CCn1ccc2nc(-c3ccccc3)nc-2c1)C(C)C | > 100 | inactive | 2.2 | >45 |
| Clc1ccccc1Cn1ccc2nc(-c3ccccc3)nc-2c1 | > 100 | inactive | 0.19 | >526 |
| FC(F)(F)Oc1ccc(Cn2ccc3nc(-c4ccccc4)nc-3c2)cc1 | 66 | inactive | 0.27 | 244 |
| Fc1ccc(Cn2ccc3nc(-c4ccccc4)nc-3c2)cc1 | > 100 | inactive | 0.12 | >833 |
| Clc1ccc(Cn2ccc3nc(-c4ccccc4)nc-3c2)s1 | > 100 | inactive | 0.21 | >476 |
| c1ccc(-c2ccc(Cn3ccc4nc(-c5ccccc5)nc-4c3)cc2)cc1 | 18 | inactive | 0.08 | 225 |
| Fc1ccccc1Cn1ccc2nc(-c3ccccc3)nc-2c1 | > 100 | inactive | 0.1 | >1000 |
| FC(F)(F)c1ccc(Cn2ccc3nc(-c4ccccc4)nc-3c2)cc1 | 84 | inactive | 0.22 | 455 |
| Brc1cccc(Cn2ccc3nc(-c4ccccc4)nc-3c2)c1 | 85 | inactive | 0.28 | 304 |
| FC(F)(F)c1cccc(Cn2ccc3nc(-c4ccccc4)nc-3c2)c1 | 98 | inactive | 0.24 | 408 |
| COc1ccc(Cn2ccc3nc(-c4ccccc4)nc-3c2)cc1 | > 100 | inactive | 0.14 | >714 |
| C(=C\c1ccccc1)/Cn1ccc2nc(-c3ccccc3)nc-2c1 | 78 | inactive | 0.17 | 459 |
